Data published in ChEMBL document CHEMBL3988442, “University of Dundee, Small-Polar-MMV Screening Library” (2021).

Legend:
[1] = microbe, parasite or virus in culture; settings: Mycobacterium tuberculosis, 72 h, read-out: pIC50 (converted)
[2] = microbe, parasite or virus in culture; settings: Mycobacterium tuberculosis, 96 h, read-out: pIC50 (converted)

Row | SMILES | IC50 [1] [µM] | IC50 [2] [µM]
1 | COc1cccc2c1CCC2N (stereo not drawn) | 223 | > 501
2 | CNCC(O)CN1CCc2ccccc2CC1 (stereo not drawn) | 254 | 289
3 | NC[C@]12C[C@H]1CCN2Cc1ccccc1 | > 501 | 184
4 | NC(=O)CC1CCN(C(=O)Cc2ccc(Cl)cc2)CC1 | > 501 | > 501
5 | CCc1ccc(S(=O)(=O)N(C)CC(N)=O)s1 | 244 | > 501
6 | CC(CNC(=O)N[C@@H](C)C(=O)N(C)C)Cc1cccs1 (stereo partly drawn) | 247 | 277
7 | CC(C)c1ccc(NC(=O)C2COCCN2C)cc1 (stereo not drawn) | 151 | > 501
8 | COc1ccc(N2CCCN(CCC(N)=O)CC2)cc1 | 345 | 240
9 | COc1ccc2c(c1)OCC(CNC(=O)CN(C)C)C2 (stereo not drawn) | > 501 | > 501
10 | CCOc1cccc(Cn2cnc(CC)cc2=O)n1 | > 501 | > 501
11 | COc1ccnc(NCc2ccc(CO)c(F)c2)n1 | > 501 | > 501
12 | CN(Cc1ccco1)C(=O)c1cc(C2CC2)[nH]n1 | 107 | 59.3
13 | CSc1ccc(C(CN)N(C)C)cc1 (stereo not drawn) | 215 | 319
14 | CN(CCOc1ccc(Cl)cc1)S(C)(=O)=O | 142 | 178
15 | COc1cc(OC)cc(N2CCCNCC2)c1 | 112 | 150
16 | COc1ccccc1OC(C)CN (stereo not drawn) | 20.2 | 61.1
17 | CC[C@@H](CO)NC(=O)NCC(C)c1ccsc1 (stereo partly drawn) | 483 | 495
18 | FC(F)Oc1cccc(N2CCNCC2)c1 | 147 | 347
19 | CC(=O)c1cccc(OCC(=O)NC2CCCC2)c1 | 290 | 182
20 | CC(C)C(NS(=O)(=O)N1CCOCC1)c1ccccc1 (stereo not drawn) | > 501 | > 501
21 | Cc1cc(C(C)NC(=O)CN2CSCC2=O)c(C)s1 (stereo not drawn) | 274 | > 501
22 | Cn1ccc(C(=O)NCc2csc(Br)c2)cc1=O | > 501 | > 501
23 | CCNC(=O)NC(=O)CN(C)Cc1ccccc1 | 171 | 134
24 | CCOc1ccc2c(c1)C=C(C(=O)NC)CO2 | 174 | 230
25 | CN(C)c1cc(CNC(=O)c2ccc(Br)o2)ccn1 | > 501 | > 501
26 | COc1ccc(C)cc1CN1CCN(S(N)(=O)=O)CC1 | 65.2 | 184
27 | CN(Cc1ccsc1)C(=O)CNC(=O)c1ccc(Br)o1 | 138 | 164

Row | SMILES | IC50 [1] [µM] | IC50 [2] [µM]
28 | CCC(C)(C)NC(=O)c1nn(-c2ccccc2)nc1C | 199 | 298
29 | CCNc1ncc(C(=O)N(C)Cc2ccsc2)cn1 | > 501 | > 501
30 | CSCCC(=O)NCc1ccc(C)s1 | > 501 | > 501
31 | O=C1N(Cc2ccccc2)CCN1S(=O)(=O)Cl | 259 | 248
32 | O=C(CCC(=O)c1ccc(F)cc1)NCc1ccco1 | 219 | > 501
33 | NC1(c2nc(C3CC3)cc(=O)[nH]2)CCCC1 | 304 | > 501
34 | CC(C)CNc1nc(N)c2cn[nH]c2n1 | 80 | 234
35 | Cc1cccc(CN(CC(N)=O)Cc2ccccn2)c1 | 194 | > 501
36 | CC(C)(C)OC(=O)N1CC2(CCC(CN)O2)C1 (stereo not drawn) | 231 | 263
37 | O=C(NC1CCCc2occc21)c1cccnc1 (stereo not drawn) | 57.8 | 79.9
38 | CCNC(=O)NCCOC(=O)c1cccc2cc[nH]c12 | > 501 | > 501
39 | CN(C)S(=O)(=O)N1CCCC1c1ccsc1 (stereo not drawn) | 277 | > 501
40 | CCc1ccccc1CN1C(=O)CCC1=O | > 501 | > 501
41 | O=C(Nc1ccc(Cl)cn1)c1ccncc1 | 304 | > 501
42 | COc1ccc(CNC(=O)CNC2CCCSC2)cc1 (stereo not drawn) | > 501 | 37.4
43 | CC(C)n1cc(Br)cc1C(=O)NC1=NCCS1 | 177 | > 501
44 | CCOC(=O)C(C)Nc1ccc2c(c1)CCCC(=O)N2 (stereo not drawn) | > 501 | > 501
45 | CC(C)NC(=O)NC(C)c1ccccc1 (stereo not drawn) | > 501 | > 501
46 | CC(C)Oc1ccc(S(=O)(=O)N(C)C(C)CN)cc1 (stereo not drawn) | 162 | 273
47 | Cc1ccc(-c2nc(CSc3nnc(N)[nH]3)no2)cc1 | 107 | 80.2
48 | NCCCC(=O)N(Cc1ccccc1F)C1CCC1 | 231 | > 501
49 | COCCC(C)Nc1c[nH]nc1-c1ccccn1 (stereo not drawn) | 201 | > 501
50 | NC(=O)COc1cc(Cl)cc(Cl)c1 | 246 | 278
51 | CC(Nc1ccc(C#N)cn1)c1ccc2c(c1)OCO2 (stereo not drawn) | 215 | 234
52 | Nc1cc(=O)[nH]n1-c1ccc(C(F)(F)F)cn1 | 197 | 308
53 | O[C@@H]1CNC[C@H](O)C1 | > 501 | > 501
54 | Cc1cccc(NC(=O)NCc2c(C)noc2C)n1 | 238 | > 501

Row | SMILES | IC50 [1] [µM] | IC50 [2] [µM]
55 | COc1ccc(CCCC(=O)N2CCC(CN)C2)cc1 (stereo not drawn) | 230 | > 501
56 | CC(Oc1ccc(Cl)cc1)C(=O)N(C)C (stereo not drawn) | > 501 | > 501
57 | Cc1ccc(-n2nnnc2NC2CC2)cc1 | 263 | > 501
58 | CSc1cc(NC(=O)NCCc2ccccn2)ccn1 | 411 | 438
59 | CN(C)S(=O)(=O)N1CCCC1COc1ccccc1 (stereo not drawn) | 360 | 271
60 | NC(=O)CCSCc1ccn(-c2ccccc2)n1 | > 501 | 229
61 | O=c1n(Cc2ccccc2)nnn1-c1cccs1 | 7.64 | 12.7
62 | CN(C)C(=O)c1csc2c1CCCC2 | 271 | 186
63 | Cc1c[nH]c(C(=O)NC2COc3ccccc3C2)n1 (stereo not drawn) | > 501 | > 501
64 | CC(=O)c1cccc(COC(=O)c2cccnc2)c1 | 231 | 269
65 | O=C(NCc1ccc2c(c1)OCO2)Nc1nccs1 | > 501 | > 501
66 | Cc1cc(C(=O)NCC(O)c2ccccc2Cl)no1 (stereo not drawn) | 177 | > 501
67 | Cc1cc(NC(=O)Cc2ccc3c(c2)OCCO3)no1 | 271 | > 501
68 | NC1CCN(Cc2ccccc2F)CC1 | > 501 | > 501
69 | Cn1cc(C(N)=O)c(NC(=O)c2ccc(Br)cc2)n1 | 257 | > 501
70 | CC(C)N(C)S(=O)(=O)NC1CCOc2ccccc21 (stereo not drawn) | 340 | > 501
71 | Cc1cc(S(=O)(=O)N2CCCC2CN)sc1C (stereo not drawn) | 141 | > 501
72 | O=C(NCc1cccc(Cl)c1)c1cnns1 | 297 | 159
73 | CC(CN1CCOCC1)NC(=O)c1csc(Br)c1 (stereo not drawn) | 102 | 205
74 | O=C(CSc1ncccc1Br)N1CCCC1 | 5.62 | 70.3
75 | C=C(C)CCOC(=O)c1cc(C(N)=O)cs1 | 39.4 | 157
76 | COc1ccc(NC(=O)N2CCCN(C)CC2)cc1F | > 501 | > 501
77 | C=C(C)COCCNC(=O)c1c(O)cccc1F | > 501 | > 501
78 | CN(C1(C#N)CCC1)S(=O)(=O)c1cccs1 | 323 | > 501
79 | O=S(=O)(CCN1CCCC(O)C1)c1ccc(Br)cc1 (stereo not drawn) | 359 | 174
